Broadly, the IC50 is the concentration that gives 50% inhibition. Usually Ki stands for the dissociation constant of the complex between target and ligand, obtained from inhibition or displacement. Broadly, the Kd is the constant that tells how readily two partners part at equilibrium.

For eight compounds, IC50, Ki and Kd results are on record in ChEMBL document CHEMBL5104116, “Strategies for targeting the P2Y12 receptor in the central nervous system” (Bioorg Med Chem Lett, 2022).

Molecules are shown by their SMILES.

Assay [1] concerns the target T1, P2Y purinoceptor 12 (Homo sapiens, UniProt Q9H244). The experiment in a line: Inhibition of P2Y12 (unknown origin).
Assay [2] has as its target T1, P2Y purinoceptor 12. The experiment in a line: Displacement of [3H]-2MesADP from human P2Y12 in HEK cell membrane assessed as inhibition constant incubated for 1 hr by scintillation counter method. Format: cell membranes. A general note: Loss of bound radioactivity is the signal in a displacement assay; it reports binding, not function.
In assay [3] the target is T1, P2Y purinoceptor 12. The experiment in a line: Binding affinity to P2Y12 (unknown origin) assessed as inhibition constant.
The target in assay [4] is T1, P2Y purinoceptor 12. The experiment in a line: Displacement of [33P]-2MeS-ADP from recombinant human P2Y12 transfected in HEK cell membrane assessed as inhibition constant incubated for 1 hr by competitive binding assay. It counts as cell membranes.
Assay [5] deals with T1, P2Y purinoceptor 12. The experiment in a line: Displacement of [3H]-2MesADP from recombinant human P2Y12 transfected in HEK cell membrane assessed as inhibition constant. It counts as cell membranes.
In assay [6] the target is T1, P2Y purinoceptor 12. The experiment in a line: Displacement of [3H]PSB-0413 from P2Y12 in human platelets assessed as dissociation constant. Format: cell-based, Platelet.

T1 sequence (Q9H244 whole entry): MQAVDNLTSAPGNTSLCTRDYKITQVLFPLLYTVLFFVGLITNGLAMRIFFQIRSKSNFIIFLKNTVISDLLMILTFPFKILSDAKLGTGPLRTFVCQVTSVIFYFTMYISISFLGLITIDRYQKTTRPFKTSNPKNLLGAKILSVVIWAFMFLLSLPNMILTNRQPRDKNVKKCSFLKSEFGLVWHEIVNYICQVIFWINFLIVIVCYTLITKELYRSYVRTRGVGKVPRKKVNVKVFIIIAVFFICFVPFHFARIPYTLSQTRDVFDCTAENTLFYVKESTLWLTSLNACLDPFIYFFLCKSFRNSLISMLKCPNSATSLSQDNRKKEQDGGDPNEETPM

Take `CC(=O)Oc1cc2c(s1)CCN(C(C(=O)C1CC1)c1ccccc1F)C2` (stereo not drawn): the IC50 against P2Y purinoceptor 12 [1] came out at 1800 nM. On to `CCCc1cc2c(N3CCn4c(nnc4C(F)(F)F)C3)nc(OCCF)nc2s1`, for which, at P2Y purinoceptor 12 [2], the Ki was 0.3 nM. Regarding `COC(=O)[C@H](c1ccccc1Cl)N1CCc2sccc2C1` [CLOPIDOGREL], the midpoint of inhibition against P2Y purinoceptor 12 [1], the IC50, lay at 2400 nM. As to `CCCCCOC(=O)N1CCN(C(=O)[C@H](CCC(=O)O)NC(=O)c2cc(N3CCC(COC)CC3)cc(-c3ccccc3)n2)CC1`, at P2Y purinoceptor 12 [3], the Ki came to 3.5 nM. Turning to `NCc1cc2c(N3CCN(C(=O)c4ccc(-c5ccccc5)cc4)CC3)nc(N3CCNC(=O)C3)nc2s1`, on P2Y purinoceptor 12 [4], the Ki came out at 9 nM. The compound `CCCSc1nc(N[C@@H]2C[C@H]2c2ccc(F)c(F)c2)c2nnn([C@@H]3C[C@H](OCCO)[C@@H](O)[C@H]3O)c2n1` [TICAGRELOR] had a concentration for half-maximal inhibition (IC50) at P2Y purinoceptor 12 [1] of 10 nM. As to `CSc1nc(N)c2ncn([C@@H]3O[C@H](COP(=O)(O)OP(=O)(O)O)[C@@H](O)[C@H]3O)c2n1`, the Ki on P2Y purinoceptor 12 [5] is 32.1 nM. Consider `[3H]C([3H])C([3H])([3H])CSc1nc(N)c2ncn([C@@H]3O[C@H](COP(=O)(O)OP(=O)(O)O)[C@@H](O)[C@H]3O)c2n1`, for which the Kd at P2Y purinoceptor 12 [6] came out at 6.5 nM.
